Experimental data published in patent publication US8658604B2, “Template-fixed beta-hairpin peptidomimetics with protease inhibitory activity” (Polyphor Ltd, priority 2005, dated 2014).
Read-outs that look alike come from different tables or passages of the source. Where a SMILES comes first, the peptide text is derived from it.

Legend:
[1] = target: Urokinase from human urine (Homo sapiens, UniProt P00749); test: Enzymatic assay, urokinase
[2] = target: T1, Elastase from human neutrophils (Homo sapiens, UniProt P08246); test: Enzymatic assay, elastase
T1 sequence (P08246 30-267): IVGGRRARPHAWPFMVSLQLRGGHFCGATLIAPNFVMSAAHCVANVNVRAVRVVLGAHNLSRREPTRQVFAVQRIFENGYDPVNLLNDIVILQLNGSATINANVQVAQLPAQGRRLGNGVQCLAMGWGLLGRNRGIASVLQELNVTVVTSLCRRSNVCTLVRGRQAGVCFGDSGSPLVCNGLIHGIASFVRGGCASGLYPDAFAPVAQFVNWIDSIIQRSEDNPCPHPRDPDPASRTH

[3] = target: Chymotrypsin, from human pancreas (Homo sapiens, UniProt P17538); test: Enzymatic assay, chymotrypsin
Chain of Chymotrypsin, from human pancreas (P17538 19-263): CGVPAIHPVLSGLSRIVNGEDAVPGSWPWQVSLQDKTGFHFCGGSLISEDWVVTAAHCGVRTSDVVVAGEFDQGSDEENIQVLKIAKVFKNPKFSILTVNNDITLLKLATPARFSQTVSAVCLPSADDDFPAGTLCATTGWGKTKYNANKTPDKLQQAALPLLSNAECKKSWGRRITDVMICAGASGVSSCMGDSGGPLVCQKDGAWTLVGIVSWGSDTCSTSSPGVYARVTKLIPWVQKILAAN

[4] = target: T2, CathepsinG, from human neutrophils (Homo sapiens, UniProt P08311); test: Enzymatic assay, cathepsin G
T2 sequence (P08311 21-244): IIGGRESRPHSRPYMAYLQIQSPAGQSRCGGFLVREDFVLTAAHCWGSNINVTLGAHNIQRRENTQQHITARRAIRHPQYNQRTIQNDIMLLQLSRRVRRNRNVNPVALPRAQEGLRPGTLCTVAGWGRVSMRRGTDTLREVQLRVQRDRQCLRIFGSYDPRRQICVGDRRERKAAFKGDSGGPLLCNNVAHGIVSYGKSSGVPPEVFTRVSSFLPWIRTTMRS

[5] = target: Thrombin, from Human Plasma (Homo sapiens, UniProt P00734); test: Enzymatic assay, thrombin
Chymase, from human skin = target: T3, Chymase, from human skin (Homo sapiens, UniProt P23946); test: Enzymatic assay, chymase
T3 sequence (P23946 22-247): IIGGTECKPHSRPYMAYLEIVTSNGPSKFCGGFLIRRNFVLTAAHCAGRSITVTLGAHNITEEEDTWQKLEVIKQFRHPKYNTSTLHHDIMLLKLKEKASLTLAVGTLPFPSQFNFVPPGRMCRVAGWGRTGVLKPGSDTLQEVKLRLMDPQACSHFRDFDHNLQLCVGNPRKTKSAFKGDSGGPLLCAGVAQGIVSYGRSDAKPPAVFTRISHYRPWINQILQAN

[6] = target: Trypsin, from human pancreas (Homo sapiens, UniProt P07477); test: Enzymatic assay, trypsin; conditions: at 100 μM
[7] = target: Coagulation Factor Xa, from uman plasma (Homo sapiens, UniProt P00742); test: Enzymatic assay, coagulation factor Xa
Chain of Coagulation Factor Xa, from uman plasma (P00742 235-488 limits assumed): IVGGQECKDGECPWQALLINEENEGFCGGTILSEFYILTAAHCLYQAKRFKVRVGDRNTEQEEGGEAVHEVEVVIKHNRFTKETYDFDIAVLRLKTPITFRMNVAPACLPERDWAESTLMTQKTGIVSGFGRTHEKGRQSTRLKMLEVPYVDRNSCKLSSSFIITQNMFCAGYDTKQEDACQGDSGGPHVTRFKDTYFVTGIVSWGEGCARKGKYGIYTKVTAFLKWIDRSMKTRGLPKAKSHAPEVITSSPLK
Chain of Coagulation Factor Xa, from uman plasma (P00742 41-179 limits assumed): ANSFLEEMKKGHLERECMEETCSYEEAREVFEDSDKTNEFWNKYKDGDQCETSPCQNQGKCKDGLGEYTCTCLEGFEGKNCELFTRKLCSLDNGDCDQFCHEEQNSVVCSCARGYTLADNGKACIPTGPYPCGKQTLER

[8] = system: Tryptase, from human lung; test: Enzymatic assay, tryptase; conditions: at 100 μM
[9] = at 100 μM (stated in cell instead of IC50)

Structure (SMILES)	Urokinase at 100 μM % [1] [%]	IC50 ([2]; Elastase IC50) [nM]	Chymotrypsin at 100 μM % [3] [%]	Cathepsin G at 100 μM % ([4]; at 100 μM) [at 100%]	Thrombin at 100 μM % [5] [%]	Chymase at 100 μM % (Chymase, from human skin) [%]	Trypsin at 100 μM % [6] [%]	FXa at 100 μM % [7] [%]	Tryptase At 100 μM % [8] [%]	IC50 [3] [nM]	Cathepsin G at 100 μM % [4, 9] [at 100%]	Tryptase at 100 μM % [8] [%]	IC50 ([4]; Cathepsin G IC50) [nM]	IC50 ([2]; read-out: Elastase IC50) [nM]	IC50 ([4]; read-out: Cathepsin G IC50) [nM]
CCCCCCCC[C@@H]1NC(=O)[C@H](CCC(N)=O)NC(=O)[C@H]2CCCN2C(=O)[C@H](Cc2ccc(O)cc2)NC(=O)[C@@H]2CSSC[C@H](NC1=O)C(=O)N[C@@H]([C@@H](C)O)C(=O)N[C@@H](C)C(=O)N[C@@H](CO)C(=O)N[C@@H]([C@@H](C)CC)C(=O)N1CCC[C@H]1C(=O)N1CCC[C@H]1C(=O)N[C@@H](CCC(N)=O)C(=O)N2 [compound 177] (HELM PEPTIDE1{[CCCCCCCC[C@H](N[*:1])C(=O)[*:2]].C.T.A.S.I.P.P.Q.C.Y.[dP].Q}$PEPTIDE1,PEPTIDE1,2:R3-10:R3|PEPTIDE1,PEPTIDE1,1:R1-13:R2$$$V2.0)	12	7	86	54	17	3	5	7	15	–	–	–	–	–	–
CCCC[C@@H]1NC(=O)[C@@H]2CCCN2C(=O)[C@H]2CCCN2C(=O)[C@H](Cc2ccc(O)cc2)NC(=O)[C@@H]2CSSC[C@H](NC1=O)C(=O)N[C@@H]([C@@H](C)O)C(=O)N[C@@H](C)C(=O)N[C@@H](CO)C(=O)N[C@@H](CC(C)(C)C)C(=O)N1CCC[C@H]1C(=O)N1CCC[C@H]1C(=O)N[C@@H](CCC(N)=O)C(=O)N2 [Ex. 85] (HELM PEPTIDE1{[Nle].C.T.A.S.[CC(C)(C)C[C@H](N[*:1])C(=O)[*:2]].P.P.Q.C.Y.[dP].P}$PEPTIDE1,PEPTIDE1,2:R3-10:R3|PEPTIDE1,PEPTIDE1,1:R1-13:R2$$$V2.0)	–	28	–	–	12.6	–	0	25.6	–	> 20000	–	–	–	–	–
CCCC[C@@H]1NC(=O)[C@@H]2CCCN2C(=O)[C@H]2CCCN2C(=O)[C@H](Cc2ccc(O)cc2)NC(=O)[C@@H]2CSSC[C@H](NC1=O)C(=O)N[C@@H](C)C(=O)N[C@@H](C)C(=O)N[C@@H](CO)C(=O)N[C@@H]([C@@H](C)CC)C(=O)N1CCC[C@H]1C(=O)N1CCC[C@H]1C(=O)N[C@@H](CCC(N)=O)C(=O)N2 [Ex. 86] (HELM PEPTIDE1{[Nle].C.A.A.S.I.P.P.Q.C.Y.[dP].P}$PEPTIDE1,PEPTIDE1,2:R3-10:R3|PEPTIDE1,PEPTIDE1,1:R1-13:R2$$$V2.0)	–	26	–	–	10.7	0	0	24.8	–	> 100000	47	0	–	–	–
CCCC[C@@H]1NC(=O)[C@H](CCC(N)=O)NC(=O)[C@H]2CCCN2C(=O)[C@H](Cc2ccc(O)cc2)NC(=O)[C@@H]2CSSC[C@H](NC1=O)C(=O)N[C@@H]([C@@H](C)O)C(=O)N[C@@H](C)C(=O)N[C@@H](CO)C(=O)N[C@@H]([C@@H](C)CC)C(=O)N1CCC[C@H]1C(=O)N1CCC[C@H]1C(=O)N[C@@H](CCC(N)=O)C(=O)N2 [Ex. 123] (HELM PEPTIDE1{[Nle].C.T.A.S.I.P.P.Q.C.Y.[dP].Q}$PEPTIDE1,PEPTIDE1,2:R3-10:R3|PEPTIDE1,PEPTIDE1,1:R1-13:R2$$$V2.0)	7.6	14	–	–	2.7	0	7.9	0	–	15000	–	–	35200	–	–
CC[C@H](C)[C@@H]1NC(=O)[C@@H]2CCCN2C(=O)[C@@H]2CCCN2C(=O)[C@H](CC(=O)O)NC(=O)[C@H](CO)NC(=O)[C@H](CCCCN)NC(=O)[C@H]([C@@H](C)O)NC(=O)[C@@H]2CSSC[C@H](NC1=O)C(=O)N[C@@H](CO)C(=O)N[C@H](C)C(=O)N1CCC[C@H]1C(=O)N[C@@H](Cc1ccccc1)C(=O)N2 [Ex. 49] (HELM PEPTIDE1{F.C.T.K.S.D.P.P.I.C.S.[dA].P}$PEPTIDE1,PEPTIDE1,2:R3-10:R3|PEPTIDE1,PEPTIDE1,1:R1-13:R2$$$V2.0)	6.2	> 10000	0	–	7.9	0	96	–	–	–	–	30.5	82	–	–
CCCC[C@@H]1NC(=O)[C@H](CCC(N)=O)NC(=O)[C@@H](CCC(N)=O)NC(=O)[C@H](CCC(N)=O)NC(=O)[C@@H]2CSSC[C@H](NC1=O)C(=O)N[C@@H]([C@@H](C)O)C(=O)N[C@@H](C)C(=O)N[C@@H](CO)C(=O)N[C@@H](CC1CCCCC1)C(=O)N1CCC[C@H]1C(=O)N1CC(NC(=O)c3ccccc3)C[C@H]1C(=O)N[C@@H](CCC(N)=O)C(=O)N2 (stereo partly shown) [compound 176] (HELM PEPTIDE1{[Nle].C.T.A.S.[Cha].P.[O=C(NC1C[C@@H](C(=O)[*:2])N([*:1])C1)c1ccccc1].Q.C.Q.[dQ].Q}$PEPTIDE1,PEPTIDE1,2:R3-10:R3|PEPTIDE1,PEPTIDE1,1:R1-13:R2$$$V2.0)	8	–	55	69	15	2	7	1	17	–	–	–	–	–	–
CC[C@H](C)[C@@H]1NC(=O)[C@@H]2CCCN2C(=O)[C@@H]2CCCN2C(=O)[C@H](CC(=O)O)NC(=O)[C@H](CO)NC(=O)[C@H](CCCCN)NC(=O)[C@H]([C@@H](C)O)NC(=O)[C@@H]2CSSC[C@H](NC1=O)C(=O)N[C@@H](Cc1ccc(O)cc1)C(=O)N1CCC[C@@H]1C(=O)N1CCC[C@H]1C(=O)N[C@@H](CCc1ccccc1)C(=O)N2 [Ex. 30] (HELM PEPTIDE1{[O=C([C@H](CCc1ccccc1)N[*:1])[*:2]].C.T.K.S.D.P.P.I.C.Y.[dP].P}$PEPTIDE1,PEPTIDE1,2:R3-10:R3|PEPTIDE1,PEPTIDE1,1:R1-13:R2$$$V2.0)	9	49900	49	–	2	0	98	3	–	–	–	–	39	–	–
C[C@@H](O)[C@@H]1NC(=O)[C@@H]2CSSC[C@H](NC(=O)[C@H](CC3CCCCC3)NC(=O)[C@@H]3CCCN3C(=O)[C@@H]3CCCN3C(=O)[C@H](CC(=O)O)NC(=O)[C@H](CO)NC(=O)[C@H](CCCCN)NC1=O)C(=O)N[C@@H](CO)C(=O)N1CCC[C@@H]1C(=O)N1CCC[C@H]1C(=O)N[C@@H](Cc1ccccc1)C(=O)N2 [compound 54] (HELM PEPTIDE1{F.C.T.K.S.D.P.P.[Cha].C.S.[dP].P}$PEPTIDE1,PEPTIDE1,2:R3-10:R3|PEPTIDE1,PEPTIDE1,1:R1-13:R2$$$V2.0)	3.2	–	18	–	–	12.9	90	–	–	–	–	–	–	> 100000	66
CCCCCCCC[C@@H]1NC(=O)[C@@H]2CCCN2C(=O)[C@H]2CCCN2C(=O)[C@H](CCC(N)=O)NC(=O)[C@@H]2CSSC[C@H](NC1=O)C(=O)N[C@@H]([C@@H](C)O)C(=O)N[C@@H](C)C(=O)N[C@@H](CO)C(=O)N[C@@H](CC1CCCCC1)C(=O)N1CCC[C@H]1C(=O)N1CC(NC(=O)c3ccccc3)C[C@H]1C(=O)N[C@@H](CCC(N)=O)C(=O)N2 (stereo partly shown) [Ex. 160] (HELM PEPTIDE1{[CCCCCCCC[C@H](N[*:1])C(=O)[*:2]].C.T.A.S.[Cha].P.[O=C(NC1C[C@@H](C(=O)[*:2])N([*:1])C1)c1ccccc1].Q.C.Q.[dP].P}$PEPTIDE1,PEPTIDE1,2:R3-10:R3|PEPTIDE1,PEPTIDE1,1:R1-13:R2$$$V2.0)	14	–	94	55	23	2	3	1	30	–	–	–	–	–	–
CCCC[C@@H]1NC(=O)[C@H](CCC(=O)O)NC(=O)[C@@H](CCCCN)NC(=O)[C@H](Cc2ccc(O)cc2)NC(=O)[C@@H]2CSSC[C@H](NC1=O)C(=O)N[C@@H]([C@@H](C)O)C(=O)N[C@@H](C)C(=O)N[C@@H](CO)C(=O)N[C@@H]([C@@H](C)CC)C(=O)N1CCC[C@H]1C(=O)N1CCC[C@H]1C(=O)N[C@@H](CCC(N)=O)C(=O)N2 [Ex. 127] (HELM PEPTIDE1{[Nle].C.T.A.S.I.P.P.Q.C.Y.[dK].E}$PEPTIDE1,PEPTIDE1,2:R3-10:R3|PEPTIDE1,PEPTIDE1,1:R1-13:R2$$$V2.0)	–	29	47.2	–	3.7	1.9	0	13.3	–	–	64	0	–	–	–
